Experiments:
[1] = tested on: BT-474 Tam1; assay: drug sensitivity score (DSS) (DSS (dimensionless)); higher = more sensitive; extreme values may be limits of the assay; details: 4-OH-tamoxifen in medium 1 µM; 72 h
Experimental: (§1)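 FIMM FO2B library drugs were tested at 5 concentrations (10,000-fold range) for 72 h, with CellTiter-Glo viability normalised to DMSO and benzethonium chloride controls. The Drug Sensitivity Score (DSS) is computed from the fitted logistic dose-response curve (area-based; 0 = inactive). Resistant lines and the 'in 1µM tamoxifen' arms were tested in 1 µM 4-OH-tamoxifen.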

[2] = tested on: BT-474 Tam2; assay: as above; details: 4-OH-tamoxifen in medium 1 µM; 72 h
Experimental: as §1

[3] = tested on: BT-474; assay: as above; details: 72 h
Experimental: as §1

[4] = tested on: MCF-7 Tam1; assay: as above; details: 4-OH-tamoxifen in medium 1 µM; 72 h
Experimental: as §1

[5] = tested on: MCF-7; assay: as above; details: 72 h
Experimental: as §1

[6] = tested on: T-47D Tam1; assay: as above; details: 4-OH-tamoxifen in medium 1 µM; 72 h
Experimental: as §1

[7] = tested on: T-47D Tam2; assay: as above; details: 4-OH-tamoxifen in medium 1 µM; 72 h
Experimental: as §1

[8] = tested on: T-47D; assay: as above; details: 72 h
Experimental: as §1

[9] = tested on: ZR-75-1 Tam1; assay: as above; details: 4-OH-tamoxifen in medium 1 µM; 72 h
Experimental: as §1

[10] = tested on: ZR-75-1 Tam2; assay: as above; details: 4-OH-tamoxifen in medium 1 µM; 72 h
Experimental: as §1

[11] = tested on: ZR-75-1; assay: as above; details: 72 h
Experimental: as §1

[12] = tested on: BT-474 Tam1; assay: relative IC50 (midpoint of fitted logistic curve, plateau may be below 50% inhibition; CellTiter-Glo viability); higher = less potent; details: 4-OH-tamoxifen in medium 1 µM; 72 h
Summary of the method: (§2)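 Breast cancer cell lines and their resistant derivatives were seeded into 384-well plates containing library drugs at five concentrations across a 10 000-fold range, with resistant lines kept in medium with 1 μM of the selecting drug. After 72 h at 37 °C, CellTiter-Glo viability was read on a PHERAstar and normalised to vehicle-only and positive controls. Logistic dose–response fits in the Breeze pipeline gave drug sensitivity score, relative IC50 (curve midpoint) and top-dose inhibition.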

[13] = tested on: BT-474 Tam2; assay: as above; details: 4-OH-tamoxifen in medium 1 µM; 72 h
Summary of the method: as §2

[14] = tested on: BT-474; assay: as above; details: 72 h
Summary of the method: as §2

[15] = tested on: MCF-7; assay: as above; details: 72 h
Summary of the method: as §2

[16] = tested on: T-47D Tam1; assay: as above; details: 4-OH-tamoxifen in medium 1 µM; 72 h
Summary of the method: as §2

[17] = tested on: T-47D Tam2; assay: as above; details: 4-OH-tamoxifen in medium 1 µM; 72 h
Summary of the method: as §2

[18] = tested on: T-47D; assay: as above; details: 72 h
Summary of the method: as §2

[19] = tested on: ZR-75-1; assay: as above; details: 4-OH-tamoxifen in medium 0 µM; 72 h
Summary of the method: as §2

[20] = tested on: ZR-75-1 Tam1; assay: as above; details: 4-OH-tamoxifen in medium 1 µM; 72 h
Summary of the method: as §2

[21] = tested on: ZR-75-1 Tam2; assay: as above; details: 4-OH-tamoxifen in medium 1 µM; 72 h
Summary of the method: as §2

Row | Structure (SMILES) | relative IC50 [12] [µM] | relative IC50 [13] [µM] | relative IC50 ([14]; 4-OH-tamoxifen in medium 0 µM) [µM] | relative IC50 ([14]; 4-OH-tamoxifen in medium 1 µM) [µM] | relative IC50 ([15]; 4-OH-tamoxifen in medium 0 µM) [µM] | relative IC50 ([15]; 4-OH-tamoxifen in medium 1 µM) [µM] | relative IC50 [16] [µM] | relative IC50 [17] [µM] | relative IC50 ([18]; 4-OH-tamoxifen in medium 0 µM) [µM] | relative IC50 ([18]; 4-OH-tamoxifen in medium 1 µM) [µM] | drug sensitivity score [1] | drug sensitivity score [2] | drug sensitivity score ([3]; 4-OH-tamoxifen in medium 0 µM) | drug sensitivity score ([3]; 4-OH-tamoxifen in medium 1 µM) | drug sensitivity score [4] | drug sensitivity score ([5]; 4-OH-tamoxifen in medium 0 µM) | drug sensitivity score ([5]; 4-OH-tamoxifen in medium 1 µM) | drug sensitivity score [6] | drug sensitivity score [7] | drug sensitivity score ([8]; 4-OH-tamoxifen in medium 0 µM) | drug sensitivity score ([8]; 4-OH-tamoxifen in medium 1 µM) | drug sensitivity score [9] | drug sensitivity score [10] | drug sensitivity score ([11]; 4-OH-tamoxifen in medium 0 µM) | drug sensitivity score ([11]; 4-OH-tamoxifen in medium 1 µM) | relative IC50 [19] [µM] | relative IC50 [20] [µM] | relative IC50 [21] [µM]
1 | CCc1cncnc1N1CCN(Cc2nc3ccc(C(F)(F)F)cc3[nH]2)CC1 | 3.23 | 3.22 | 3.3 | 4.06 | 2.92 | 1.1 | 1.57 | 2.31 | 1.53 | – | 3.7 | 2.05 | 1.64 | 2.18 | 0.774 | 1.96 | 2.72 | 2.79 | 1.89 | 2.8 | 0.435 | 0.834 | 1.31 | 0.27 | 1.12 | – | – | –
2 | Cc1ccc(C(=O)Nc2ccc(CN3CCN(C)CC3)c(C(F)(F)F)c2)cc1C#Cc1cnc2cccnn12 | 0.406 | – | > 1 | 0.458 | – | – | 0.0432 | 0.337 | – | 0.391 | 1.26 | 0 | 0 | 1.07 | 0.248 | 0 | 0.178 | 11.6 | 1.72 | 0.62 | 1.21 | 0.0086 | 0.0834 | 0 | 0.047 | > 1 | – | –
3 | CC(=O)OC[C@H]1O[C@@H]([S-])[C@H](OC(C)=O)[C@@H](OC(C)=O)[C@@H]1OC(C)=O.CCP(CC)CC.[Au+] [Auranofin] | 0.853 | 0.785 | 0.719 | 1.02 | 0.561 | 0.376 | 0.0653 | 0.584 | 0.804 | 0.223 | 5 | 3.68 | 3.43 | 4.22 | 1.48 | 6.78 | 2.93 | 11.5 | 4.19 | 1.36 | 4.22 | 0.421 | 0.324 | 0.254 | 1.38 | – | – | –
4 | C[C@]12O[C@H](C[C@]1(O)CO)n1c3ccccc3c3c4c(c5c6ccccc6n2c5c31)CNC4=O [Lestaurtinib] | 0.349 | – | – | 0.16 | – | > 1 | > 1 | > 1 | > 1 | – | 2.16 | 0.589 | 0.345 | 3.7 | 0.391 | 0.382 | 0 | 0 | 0 | 0 | 0.579 | 0 | 0.0147 | 0 | 0 | > 1 | > 1 | –

More lines, main results first:

Row | relative IC50 [12] [µM] | relative IC50 [13] [µM] | relative IC50 ([14]; 4-OH-tamoxifen in medium 0 µM) [µM] | relative IC50 ([14]; 4-OH-tamoxifen in medium 1 µM) [µM] | relative IC50 ([15]; 4-OH-tamoxifen in medium 0 µM) [µM] | relative IC50 ([15]; 4-OH-tamoxifen in medium 1 µM) [µM] | relative IC50 [16] [µM] | relative IC50 [17] [µM] | relative IC50 ([18]; 4-OH-tamoxifen in medium 0 µM) [µM] | relative IC50 ([18]; 4-OH-tamoxifen in medium 1 µM) [µM] | Structure (SMILES) | drug sensitivity score [1] | drug sensitivity score [2] | drug sensitivity score ([3]; 4-OH-tamoxifen in medium 0 µM) | drug sensitivity score ([3]; 4-OH-tamoxifen in medium 1 µM) | drug sensitivity score [4] | drug sensitivity score ([5]; 4-OH-tamoxifen in medium 0 µM) | drug sensitivity score ([5]; 4-OH-tamoxifen in medium 1 µM) | drug sensitivity score [6] | drug sensitivity score [7] | drug sensitivity score ([8]; 4-OH-tamoxifen in medium 0 µM) | drug sensitivity score ([8]; 4-OH-tamoxifen in medium 1 µM) | drug sensitivity score [9] | drug sensitivity score [10] | drug sensitivity score ([11]; 4-OH-tamoxifen in medium 0 µM) | drug sensitivity score ([11]; 4-OH-tamoxifen in medium 1 µM) | relative IC50 [19] [µM] | relative IC50 [20] [µM] | relative IC50 [21] [µM]
5 | – | – | 0.0285 | 0.0204 | 0.109 | – | 0.0678 | 0.0754 | – | – | CC[C@@H]1C(=O)N(C)c2cnc(Nc3ccc(C(=O)NC4CCN(C)CC4)cc3OC)nc2N1C1CCCC1 [BI 2536] | 1.24 | 0.933 | 3.73 | 7.89 | 0 | 3.44 | 10.1 | 3.5 | 4.25 | 3.7 | 0.711 | 1 | 1.18 | 2.89 | 2.08 | – | – | –
6 | 1.37 | 1.96 | 1.77 | 1.25 | > 10 | > 10 | 1.23 | 0.37 | – | > 10 | C#Cc1cccc(Nc2ncnc3cc(OCCOC)c(OCCOC)cc23)c1 [Erlotinib] | 9.3 | 7.08 | 3.4 | 9.97 | 0.0215 | 0 | 0 | 3.91 | 5.31 | 0.57 | 0 | 0.136 | 0.0461 | 0 | 0.0315 | > 10 | – | –
7 | > 10 | > 10 | > 10 | > 10 | 1.43 | > 10 | > 10 | > 10 | – | > 10 | O=c1[nH]cc(F)c(=O)[nH]1 [Fluorouracil] | 0 | 0 | 0 | 0 | 0 | 2.93 | 0 | 0 | 0 | 0.0675 | 0 | 0 | 3.05 | 1.39 | 0.596 | – | > 10 | –
8 | 0.0654 | 0.176 | 1.03 | 0.115 | – | 4.19 | > 10 | 1.41 | – | > 10 | COc1cc2ncnc(Nc3ccc(F)c(Cl)c3)c2cc1OCCCN1CCOCC1 [Gefitinib] | 24.9 | 20.3 | 9.4 | 22.7 | 0 | 2.5 | 1.2 | 0 | 4.57 | 0.0062 | 0 | 1.51 | 1.16 | 0.0359 | 1.45 | – | – | –
9 | 3.35 | 2.57 | – | 3.64 | 1.54 | 3.77 | 1.78 | 3.23 | 3.57 | 3.46 | Cc1ccc(NC(=O)c2ccc(CN3CCN(C)CC3)cc2)cc1Nc1nc(-c2cccnc2)cs1 [Masitinib] | 4.94 | 5.8 | 0.359 | 3.44 | 1.1 | 3.51 | 1.67 | 2.68 | 1.99 | 1.85 | 2.81 | 0.886 | 1.85 | 0 | 0.352 | > 10 | – | 2.58
